Experiments:
[1] = system: accumulation of sorbitol in the crystalline lenses; assay: Inhibition of accumulation of sorbitol in crystalline lenses of diabetic rats; format: in vivo, Sprague Dawley rats; conditions: for Inhibition of accumulation of sorbitol in vivo, crystalline lenses: oral 25 mg/kg at 0, 7 and 24 h, sacrificed 27 h; for inhibition of accumulation of sorbitol in crystalline lenses and sciatic nerves (in words): oral 25 mg/kg
Protocol: (§1) 2.1 Inhibition of accumulation of sorbitol in crystalline lenses and nerves of diabetic rats:
(§2) The effects of the products according to the invention on the proportion of plasma glucose and the accumulation of sorbitol in the crystalline lenses and sciatic nerves of rats made diabetic by streptozotocin were examined by the method of M. J. Peterson, et al (Metabolism, 28, 456-461 (1979)).
(§3) Fasted Sprague Dawley rats were made diabetic by intraperitoneal injection of streptozotocin (75 mg/kg). The product under test was orally administered at a dose of 25 mg/kg after 0, 7 and 24 hours. The rats were sacrificed 27 hours after induction of diabetes. The crystalline lenses and sciatic nerves were taken and preserved at -20° C. until analysed. The crystalline lenses and sciatic nerves were homogenized in water and the proteins were precipitated from ethanol. The precipitate was eliminated by centrifuging and the supernatant liquid was lyophylised. The sorbitol in the sample was determined by the method of B. Bjorkqvist (J. of Chromatograph, 218, 65-71 (1981)), adapted by A. Lenaers et al. (Arch. Intern. Physiol. Bioch., 91, B, 62-63 (1983)).
(§4) The sample was dissolved in pyridine containing galactitol as an internal standard. Derivatives were formed therefrom by phenylisocyanate during incubation for 1 hour at 60° C. The reaction was then stopped by adding methanol and the derivatives were separated and determined by HPLC.
(§5) The results are expressed as percentage inhibition of the accumulation of sorbitol, compared with the controls.

[2] = Acute oral toxicity (LD50); format: in vivo; conditions: mouse, in vivo, mice, read-out: Lethal dose LD50
Protocol: The LD 50 was calculated by the method of Litchfield and Wilcoxon (J. Pharmacol. Exp. Ther., 96, 99, 1949) and is expressed in mg/kg. The products were orally administered to mice.
Behaviour was studied, 2, 4, 6 and 24 hours after treatment. Observation was continued if symptoms persisted at that time. Deaths were recorded during the 14 days after treatment. The results are given in Table II, in which the numbers of the compounds are the same as the numbers given in column 1 of Table I.

[3] = system: accumulation of sorbitol in the sciatic nerves; assay: Inhibition of accumulation of sorbitol in sciatic nerves of diabetic rats; format: in vivo, Sprague Dawley rats; conditions: oral 25 mg/kg at 0, 7 and 24 h, sacrificed 27 h
Protocol: as §1, §2, §3, §4, §5

[4] = system: accumulation of galactitol in fibroblasts obtained from human skin; assay: Inhibition of accumulation of galactitol in fibroblasts; format: cell-based; conditions: Fibroblast, 48 h, 37° C., galactose 3 mg/ml
Protocol: 1.2 Inhibiting effect on accumulation of galactitol:
A test for evaluating this activity was made in vitro on fibroblasts obtained from human skin.
An experimental model culture was obtained by incubating the cells in the presence of a medium containing a high concentration of galactose (3 mg/ml) and the product under test, and measuring the accumulation of galactitol in the cells after a 48-hour incubation period at 37° C. The cells were then isolated, washed in physiological salt solution and treated with a water-ethanol solution. The medium was centrifuged and the supernatant liquid was lyophylized.
The galactitol in the resulting sample was determined by HPLC (=high pressure liquid chromatography) after derivatives had been obtained with phenyl isocyanate.
The proportion of proteins in the precipitate obtained during the previously-mentioned centrifuging was measured by the method of M. M. Bradford (Anal. Biochem., 72, 248-254 (1976)) and indicated the number of cells present in the sample.
The inhibiting effect of the tested product was expressed as a percentage inhibition of intracellular accumulation of galactitol compared with the controls.

[5] = molecular target: T1, aldose reductase (Rattus norvegicus, UniProt P07943); assay: Inhibition of enzymatic activity of aldose reductase in vitro; format: biochemical; conditions: 10^-4 M, rat crystalline lens enzyme, pH 6.2, D,L-glyceraldehyde substrate; read-out: Inhibition of enzymatic activity of AR in vitro
T1 construct: The supernatant liquid formed the enzyme solution used for the test; from tissue; host or cells: rat crystalline lens, water homogenate, supernatant
Description: 1.1 Inhibiting effect on enzymatic activity of aldose reductase:
The method described by S. Hayman and J. H. Kinoshita (J. Biol. Chem., 240, 877 (1965)) was used for in vitro testing of the aforementioned effect of the products according to the invention.
Rat's crystalline lens was homogenized in water and centrifuged to eliminate insoluble substances. The supernatant liquid formed the enzyme solution used for the test.
The effect of products according to the invention in inhibiting enzymatic activity of aldose reductase was determined by spectrophotometrically following for 5 minutes the disappearance of NADPH in an aqueous solution containing 0.067M phosphate buffer (final pH: 6.2), 0.40M lithium sulphate, 5.10^-5 M NADPH, 10^-4 M of the product under test and 100 μl of the enzyme solution, to which 10^-2 M of D,L-glyceraldehyde had been added as substrate. (NADPH=reduced form of nicotinamide adenine dinucleotide phosphate).
The inhibiting effect observed in the presence of 10^-4 M of product under test relative to the reaction in the absence of a compound according to the invention, is expressed as a percentage.

| inhibition at 100 µM [5] [%] | SMILES | Inhibition of accumulation of sorbitol in vivo, crystalline lenses [1] [%] | LD50 at 336 h [2] [mg/kg] | Inhibition of accumulation of sorbitol in vivo, in sciatic nerves [3] [%] | inhibition at 100 µM ([4]; 10^-4 M) [%] | inhibition at 10 µM ([4]; 10^-5 M) [%] | inhibition at 1 µM ([4]; 10^-6 M) [%] | inhibition of accumulation of sorbitol in crystalline lenses and sciatic nerves (in words) [1] |
| --- | --- | --- | --- | --- | --- | --- | --- | --- |
| – | O=C(OCN1C(=O)N(COC(=O)c2ccccc2)C2(C1=O)c1ccccc1-c1ccccc12)c1ccccc1 [Compound 3] | 37 | > 3000 | 55 | – | – | – | – |
| – | CC(C)(C)C(=O)OCN1C(=O)N(COC(=O)C(C)(C)C)C2(C1=O)c1ccccc1-c1ccccc12 [Compound 4] | 51 | – | 50 | – | – | – | – |
| – | CCC(=O)OCN1C(=O)N(COC(=O)CC)C2(C1=O)c1ccccc1-c1ccccc12 [Compound 5, bis-(1',3'-propanoyloxymethyl)-spiro-[fluorene-9,4'-imidazolidine]-2',5'-dione] | 74 | – | 81 | 91 | 56 | 24 | particularly active |
| – | CC(OC(=O)C(C)(C)C)N1C(=O)NC2(C1=O)c1ccccc1-c1ccccc12 (stereo not shown) [Compound 7, 1'-/1-(2,2-dimethylpropanoyloxy)-ethyl/-spiro-/fluorene-9,4'-imidazolidine/-2',5'-dione] | 45 | – | 72 | – | – | – | – |
| – | O=C(CCCC1CCCCC1)OCN1C(=O)N(COC(=O)CCCC2CCCCC2)C2(C1=O)c1ccccc1-c1ccccc12 [Compound 8] | 69 | > 3000 | 85 | – | – | – | particularly active |
| – | CC(C)(C)CC(=O)OCN1C(=O)N(COC(=O)CC(C)(C)C)C2(C1=O)c1ccccc1-c1ccccc12 [Compound 9] | 49 | > 1000 | 70 | – | – | – | – |
| – | CCOC(=O)OCN1C(=O)N(COC(=O)OCC)C2(C1=O)c1ccccc1-c1ccccc12 [Compound 10, bis-(1',3'-ethoxycarbonyloxymethyl)-spiro-/fluorene-9,4'-imidazolidine/-2',5'-dione] | 80 | > 3000 | 84 | – | – | – | particularly active |
| 0 | O=C(CCCc1ccccc1)OCN1C(=O)N(COC(=O)CCCc2ccccc2)C2(C1=O)c1ccccc1-c1ccccc12 [Compound 11] | 4 | – | 24 | – | – | – | – |
| – | O=C(OCN1C(=O)N(COC(=O)C2CCCCC2)C2(C1=O)c1ccccc1-c1ccccc12)C1CCCCC1 [Compound 12] | 12 | > 1000 | 48 | – | – | – | – |
| – | O=C(OCc1ccccc1)OCN1C(=O)N(COC(=O)OCc2ccccc2)C2(C1=O)c1ccccc1-c1ccccc12 [Compound 13] | 33 | – | 50 | – | – | – | – |
| – | O=C(COc1ccccc1)OCN1C(=O)N(COC(=O)COc2ccccc2)C2(C1=O)c1ccccc1-c1ccccc12 [Compound 14] | 51 | > 1000 | 61 | – | – | – | – |
| 0 | CCCCC(=O)OCN1C(=O)N(COC(=O)CCCC)C2(C1=O)c1ccccc1-c1ccccc12 [Compound 15] | 54 | – | 74 | – | – | – | – |
| – | O=C(OCN1C(=O)N(COC(=O)Oc2ccccc2)C2(C1=O)c1ccccc1-c1ccccc12)Oc1ccccc1 [Compound 16] | 53 | > 3000 | 65 | – | – | – | – |
| 84 | COCN1C(=O)NC2(C1=O)c1ccccc1-c1ccccc12 [Compound 17, 1'-(methoxymethyl)-spiro-/fluorene-9,4'-imidazolidine/-2',5'-dione] | 86 | – | 92 | – | – | – | particularly active |
| – | O=C(Nc1ccccc1)OCN1C(=O)N(COC(=O)Nc2ccccc2)C2(C1=O)c1ccccc1-c1ccccc12 [Compound 18, bis-(1',3'-N-phenylcarbamoyloxymethyl)-spiro-/fluorene-9,4'-imidazolidine/-2',5'-dione] | 8 | > 3000 | 17 | – | – | – | – |
| – | O=C(OCN1C(=O)N(COC(=O)C2CCCC2)C2(C1=O)c1ccccc1-c1ccccc12)C1CCCC1 [Compound 19] | 77 | > 3000 | 89 | – | – | – | particularly active |
| – | CCC(C(=O)OCN1C(=O)N(COC(=O)C(CC)c2ccccc2)C2(C1=O)c1ccccc1-c1ccccc12)c1ccccc1 (stereo not shown) [Compound 20] | 60 | > 3000 | 77 | – | – | – | – |
| 0 | CNC(=O)OCN1C(=O)N(COC(=O)NC)C2(C1=O)c1ccccc1-c1ccccc12 [Compound 22] | 21 | – | 17 | – | – | – | – |

| SMILES | inhibition at 100 µM [5] [%] | Inhibition of accumulation of sorbitol in vivo, crystalline lenses [1] [%] | LD50 at 336 h [2] [mg/kg] | Inhibition of accumulation of sorbitol in vivo, in sciatic nerves [3] [%] | inhibition at 100 µM ([4]; 10^-4 M) [%] | inhibition at 10 µM ([4]; 10^-5 M) [%] | inhibition at 1 µM ([4]; 10^-6 M) [%] | inhibition of accumulation of sorbitol in crystalline lenses and sciatic nerves (in words) [1] |
| --- | --- | --- | --- | --- | --- | --- | --- | --- |
| CCCCCCCC(=O)OCN1C(=O)N(COC(=O)CCCCCCC)C2(C1=O)c1ccccc1-c1ccccc12 [Compound 6, bis-(1',3'-n.octanoyloxymethyl)-spiro-/fluorene-9,4'-imidazolidine/-2',5'-dione] | 0 | 76 | > 3000 | 79 | – | – | – | – |
| CC(=O)OCN1C(=O)NC2(C1=O)c1ccccc1-c1ccccc12 [Compound 21, 1'-(acetoxymethyl)-spiro-/fluorene-9,4'-imidazolidine/-2',5'-dione] | 8 | 85 | > 1000 | 94 | – | – | – | particularly active |
